Counter-ions that a name gives are not always drawn.
Columns and labels:
JAK1 = JAK1 (Homo sapiens (Human), UniProt P23458); assay: Jak biochemical HTRF assay, JAK1; details: HTRF biochemical assay, recombinant GST-tagged catalytic domain; read-out: JAK1 IC50
JAK2 = JAK2 (Homo sapiens (Human), UniProt O60674); assay: Jak biochemical HTRF assay, JAK2; details: HTRF biochemical assay, recombinant GST-tagged catalytic domain; read-out: JAK2 IC50
JAK2, sequence (O60674 849-1124): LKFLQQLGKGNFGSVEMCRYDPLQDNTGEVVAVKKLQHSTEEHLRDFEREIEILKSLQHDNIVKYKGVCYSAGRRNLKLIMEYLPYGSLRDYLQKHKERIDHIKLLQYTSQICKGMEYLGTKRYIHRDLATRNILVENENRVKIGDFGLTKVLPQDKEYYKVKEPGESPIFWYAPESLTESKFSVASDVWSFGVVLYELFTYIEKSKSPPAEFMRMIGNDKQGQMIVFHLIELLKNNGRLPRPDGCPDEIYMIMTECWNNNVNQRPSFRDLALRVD

JAK1, sequence (P23458 875-1153): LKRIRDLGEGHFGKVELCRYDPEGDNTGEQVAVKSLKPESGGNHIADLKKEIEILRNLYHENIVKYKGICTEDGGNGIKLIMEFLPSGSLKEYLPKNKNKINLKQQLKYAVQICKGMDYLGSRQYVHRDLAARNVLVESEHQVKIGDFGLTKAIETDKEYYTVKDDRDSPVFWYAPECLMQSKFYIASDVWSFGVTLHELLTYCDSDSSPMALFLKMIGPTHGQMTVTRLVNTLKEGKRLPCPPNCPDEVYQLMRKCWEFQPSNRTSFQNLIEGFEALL

Row | Compound | IC50 (JAK1) [nM] | IC50 (JAK2) [nM]
1 | CC1(O)CN([C@@H]2CC[C@H](n3nc(Nc4ccc(Cl)cc4)c4c(=O)[nH]ccc43)[C@@H](C#N)C2)C1 [Example 5-21, (1S,2S,5R)-2-(3-((4-chlorophenyl)amino)-4-oxo-4,5-dihydro-1H-pyrazolo[4,3-c]pyridin-1-yl)-5-(3-hydroxy-3-methylazetidin-1-yl)cyclohexanecarbonitrile] | 0.35 | 6.5
2 | COCC(C)(C)CN1Cc2cc(Nc3nn([C@H]4CCCC[C@@H]4C#N)c4cc[nH]c(=O)c34)ccc2S1(=O)=O [Example 3-159, (1S,2S)-2-(3-((2-(3-methoxy-2,2-dimethylpropyl)-1,1-dioxido-2,3-dihydrobenzo[d]isothiazol-5-yl)amino)-4-oxo-4,5-dihydro-1H-pyrazolo[4,3-c]pyridin-1-yl)cyclohexanecarbonitrile] | 0.059 | 0.44
3 | N#Cc1ccc(Nc2nn([C@H]3CCC[C@@H]3C#N)c3cc[nH]c(=O)c23)cc1 [Example 3-112, 4-({1-[(1S,2S)-2-cyanocyclopentyl]-4-oxo-4,5-dihydro-1H-pyrazolo[4,3-c]pyridin-3-yl}amino)benzonitrile] | 0.25 | 1.2
4 | CNS(=O)(=O)c1ccc(Nc2nn([C@H]3CCCC[C@@H]3C#N)c3cc[nH]c(=O)c23)cc1 [Example 3-144, 4-({1-[(1S,2S)-2-cyanocyclohexyl]-4-oxo-4,5-dihydro-1H-pyrazolo[4,3-c]pyridin-3-yl}amino)-N-methylbenzenesulfonamide] | 0.099 | 0.59
5 | N#C[C@H]1CCCC[C@@H]1n1nc(Nc2ccc(C(=O)O)cc2)c2c(=O)[nH]ccc21 [Example 16-1, 4-((1-((1S,2S)-2-Cyanocyclohexyl)-4-oxo-4,5-dihydro-1H-pyrazolo[4,3-c]pyridin-3-yl)amino)benzoic acid, HCl] | 0.16 | 3.4
6 | CC(C)NS(=O)(=O)c1ccc(Nc2nn([C@H]3CCCC[C@@H]3C#N)c3cc[nH]c(=O)c23)cc1 [Example 3-18, 4-({1-[(1S,2S)-2-cyanocyclohexyl]-4-oxo-4,5-dihydro-1H-pyrazolo[4,3-c]pyridin-3-yl}amino)-N-(1-methylethyl)benzenesulfonamide] | 0.12 | 0.37
7 | CSCc1cc(Cn2ccnn2)cc(Nc2nn([C@H]3CCCC[C@@H]3C#N)c3cc[nH]c(=O)c23)c1 [Example 3-78, (1S,2S)-2-[3-({3-[(methylsulfanyl)methyl]-5-(1H-1,2,3-triazol-1-ylmethyl)phenyl}amino)-4-oxo-4,5-dihydro-1H-pyrazolo[4,3-c]pyridin-1-yl]cyclohexanecarbonitrile] | 2 | 4.4
8 | N#C[C@H]1CCCC[C@@H]1n1nc(Nc2cccc([C@H](N)C(F)(F)F)c2)c2c(=O)[nH]ccc21 [Example 7-1, (1S,2S)-2-(3-((3-((S)-1-Amino-2,2,2-trifluoroethyl)phenyl)amino)-4-oxo-4,5-dihydro-H-pyrazolo[4,3-c]pyridin-1-yl)cyclohexanecarbonitrileecarbonitrile] | 0.61 | 1.5
9 | C[C@H](NC1CCC(n2nc(Nc3ccc(Cl)cc3)c3c(=O)[nH]ccc32)C(C#N)C1)C1CC1 (stereo in doubt) [Example 4-2, (1S,2S,5R)-2-(3-((4-Chlorophenyl)amino)-4-oxo-4,5-dihydro-1H-pyrazolo[4,3-c]pyridin-1-yl)-5-(((S)-1-cyclopropylethyl)amino)cyclohexanecarbonitrile] | 84 | > 1500
10 | CC1c2ccc(Nc3nn([C@H]4CCCC[C@@H]4C#N)c4cc[nH]c(=O)c34)cc2CN1C(=O)OC(C)(C)C (stereo partly drawn) [Example 18-1, tert-Butyl 5-((1-((1S,2S)-2-cyanocyclohexyl)-4-oxo-4,5-dihydro-1H-pyrazolo[4,3-c]pyridin-3-yl)amino)-1-methylisoindoline-2-carboxylate] | 1.3 | 5.4
11 | CN1Cc2cc(Nc3nn([C@H]4CCCC[C@@H]4C#N)c4cc[nH]c(=O)c34)ccc2S1(=O)=O [Example 3-49, (1S,2S)-2-{3-[(2-methyl-1,1-dioxido-2,3-dihydro-1,2-benzisothiazol-5-yl)amino]-4-oxo-4,5-dihydro-1H-pyrazolo[4,3-c]pyridin-1-yl}cyclohexanecarbonitrile] | 0.026 | 0.29
12 | CN(C)S(=O)(=O)c1ccc(Nc2nn([C@H]3CCCC[C@@H]3C#N)c3cc[nH]c(=O)c23)cc1 [Example 3-6, 4-({1-[(1S,2S)-2-cyanocyclohexyl]-4-oxo-4,5-dihydro-1H-pyrazolo[4,3-c]pyridin-3-yl}amino)-N,N-dimethylbenzenesulfonamide] | 0.11 | 0.33
13 | CS(=O)(=O)c1ccc(Nc2nn([C@@H]3CCCC[C@H]3C#N)c3cc[nH]c(=O)c23)cc1 [Example 3-4, (1R,2R)-2-(3-{[4-(methylsulfonyl)phenyl]amino}-4-oxo-4,5-dihydro-1H-pyrazolo[4,3-c]pyridin-1-yl)cyclohexanecarbonitrile] | 9.4 | 16
14 | N#C[C@H]1CCCC[C@@H]1n1nc(Nc2ccc(C(O)C(F)(F)F)cc2)c2c(=O)[nH]ccc21 (single isomer, unassigned) [Example 3-9, (1S,2S)-2-[4-oxo-3-({4-[(1S or 1R)-2,2,2-trifluoro-1-hydroxyethyl]phenyl}amino)-4,5-dihydro-1H-pyrazolo[4,3-c]pyridin-1-yl]cyclohexanecarbonitrile] | 0.081 | 0.54
15 | C[C@H](N[C@@H]1CC[C@H](n2nc(Nc3ccc(OC(F)(F)F)cc3)c3c(=O)[nH]ccc32)[C@@H](C#N)C1)C1CC1 [Example 5-27, (1S,2S,5R)-5-(((S)-1-cyclopropylethyl)amino)-2-(4-oxo-3-((4-(trifluoromethoxy)phenyl)amino)-4,5-dihydro-1H-pyrazolo[4,3-c]pyridin-1-yl)cyclohexanecarbonitrile] | 3.7 | 233
16 | N#C[C@H]1CCCC[C@@H]1n1nc(Nc2ccc3c(c2)CN(CCO)S3(=O)=O)c2c(=O)[nH]ccc21 [Example 3-80, (1S,2S)-2-(3-{[2-(2-hydroxyethyl)-1,1-dioxido-2,3-dihydro-1,2-benzisothiazol-5-yl]amino}-4-oxo-4,5-dihydro-1H-pyrazolo[4,3-c]pyridin-1-yl)cyclohexanecarbonitrile] | 0.079 | 0.92
17 | CC(C)OC(=O)c1ccc2cc(Nc3nn([C@H]4CCCC[C@@H]4C#N)c4cc[nH]c(=O)c34)ccc2n1 [Example 15-16, isopropyl 6-((1-((1S,2S)-2-cyanocyclohexyl)-4-oxo-4,5-dihydro-1H-pyrazolo[4,3-c]pyridin-3-yl)amino)quinoline-2-carboxylate] | 0.26 | 3.8
18 | CN(C)[C@H]1CC[C@H](n2nc(Nc3ccc(Cl)cc3)c3c(=O)[nH]ccc32)[C@@H](C#N)C1 [Example 5-16, (1S,2S,5S)-2-(3-((4-chlorophenyl)amino)-4-oxo-4,5-dihydro-1H-pyrazolo[4,3-c]pyridin-1-yl)-5-(dimethylamino)cyclohexanecarbonitrile] | 0.34 | 11
19 | CC(C)(C)OC(=O)CN1Cc2ccc(Nc3nn([C@H]4CCCC[C@@H]4C#N)c4cc[nH]c(=O)c34)cc2C1 [Example 3-164, tert-butyl [5-({1-[(1S,2S)-2-cyanocyclohexyl]-4-oxo-4,5-dihydro-1H-pyrazolo[4,3-c]pyridin-3-yl}amino)-1,3-dihydro-2H-isoindol-2-yl]acetate] | 0.33 | 2.5

— US9725445B2, “Cycloalkyl nitrile pyrazolo pyridones as Janus kinase inhibitors” (Merck Sharp & Dohme Corp., priority 2013, dated 2017)
